# According to patent publication US20120094963A1, “TARGETING PRODRUGS AND COMPOSITIONS FOR THE TREATMENT OF GASTROINTESTINAL DISEASES” (of Queen Elizabeth near Dublin, priority 2008, published 2012):
# Values joined by “and” are separate entries in the source; they are usually repeats but may differ in a detail not shown here. Equal values may be shown once. Read-outs that look alike come from different tables or passages of the source.
# Columns and labels:
# [1] = BHI media without bacteria
# Clostridium perfringens = details: anaerobic, 37° C.; for Celecoxib prodrug concentration: C. perfringens in BHI
# intestinal polyps = details: 100 ppm in the diet; min mice; cited from earlier work
# [2] = long-term (33 months) high-dose, 400 and 800 mg daily; cited from earlier work
# small intestinal polyps = details: 50 mg/kg qd p.o.; APCmin mice; cited from earlier work
# [3] = cited from earlier work; for risk of heart attack: VIGOR study patients
# [4] = APPROVe; beginning after 18 months of therapy; cited from earlier work
structure (smiles),measurement,setting,value
"Cc1ccc(-c2cc(C(F)(F)F)nn2-c2ccc(S(=O)(=O)NC(=O)CCc3ccccc3/N=N/c3ccc(O)c(C(=O)O)c3)cc2)cc1 [PC1, 2-Hydroxy-5-(2-3{-oxo-3[4-(5-p-tolyl-3-trifluoromethyl-pyrazol-1-yl)-benzenesulfonylamino]-propyl}-phenylazo)-benzoic acid]",Celecoxib prodrug in BHI,[1]; 0 hours,16.70 µM
same,Celecoxib prodrug in BHI,[1]; 2 hours,18.40 µM
same,Celecoxib prodrug in BHI,[1]; 4 hours,17.14 µM
same,Celecoxib prodrug in BHI,[1]; 6 hours,15.29 µM
same,Celecoxib prodrug in BHI,[1]; 8 hours,15.15 µM
same,Celecoxib prodrug in BHI,[1]; 24 hours,16.99 µM
same,Celecoxib prodrug concentration,Clostridium perfringens; 0 hours,15.59 µM and 14.97 µM
same,Celecoxib prodrug concentration,Clostridium perfringens; 8 hours,0.00 µM
same,Celecoxib prodrug concentration,Clostridium perfringens; 24 hours,0.00 µM
same,Azoreductase activity of Clostridium perfringens towards the prodrug,Clostridium perfringens,Azoreductase activity was observed
CC(C)c1c(C(=O)Nc2ccccc2)c(-c2ccccc2)c(-c2ccc(F)cc2)n1CC[C@@H](O)C[C@@H](O)CC(=O)O [atorvastatin],intestinal polyp formation,intestinal polyps,significantly (P<0.002) suppressed intestinal polyp formation
Cc1ccc(-c2cc(C(F)(F)F)nn2-c2ccc(S(N)(=O)=O)cc2)cc1 [celecoxib],cardiovascular risk,[2],increased cardiovascular risk compared with placebo
C#Cc1cccc(Nc2ncnc3cc(OCCOC)c(OCCOC)cc23)c1 [erlotinib],inhibition in total polyp number,small intestinal polyps,57%
same,reduction in the number of 1- to 2-mm-sized polyps,small intestinal polyps,46%
same,reduction in the number of <1-mm-sized polyps,small intestinal polyps,43%
same,reduction in the number of large-sized (>2 mm) polyps,small intestinal polyps,96%
COc1ccc2cc([C@H](C)C(=O)O)ccc2c1 [naproxen],risk of heart attack,[3],0.1%
CS(=O)(=O)c1ccc(C2=C(c3ccccc3)C(=O)OC2)cc1 [rofecoxib],risk of adverse thrombotic cardiovascular events,[4],increased relative risk of adverse thrombotic cardiovascular events
same,risk of heart attack,[3],0.4%
same,RR of heart attack,"[3]; VIGOR study, naproxen patients compared with rofecoxib patients",0.25
